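Results reflect a 48-hour exposure of cells in 96-well plates to compound at five concentrations. GI50 is the concentration that inhibits growth by half.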 The source made the active and inactive calls. Cut-off read from the data, not from the text of the source: active = GI50 up to about 1.1 µM and inactive = higher.
Tests used:
Assay in all cases: NCI-60 cell line screen, 48 h
786-0 = system: 786-0
A498 = system: A498
A549 = system: A549
ACHN = system: ACHN
BT-549 = system: BT-549
CAKI-1 = system: CAKI-1
CCRF-CEM = system: CCRF-CEM
COLO 205 = system: COLO 205
DU-145 = system: DU-145
HCC 2998 = system: HCC 2998
HCT-116 = system: HCT-116
HCT-15 = system: HCT-15
HL-60 = system: HL-60
HOP-92 = system: HOP-92
K562 = system: K562
LOX IMVI = system: LOX IMVI
MDA-MB-231 = system: MDA-MB-231
MDA-MB-435 = system: MDA-MB-435
MDA-N = system: MDA-N
NCI-H23 = system: NCI-H23
NCI-H460 = system: NCI-H460
OVCAR-4 = system: OVCAR-4
RPMI-8226 = system: RPMI-8226
RXF 393 = system: RXF 393
SF-295 = system: SF-295
SK-MEL-28 = system: SK-MEL-28
SK-MEL-5 = system: SK-MEL-5
SK-OV-3 = system: SK-OV-3
SN12C = system: SN12C
SNB-19 = system: SNB-19
SR = system: SR
SW-620 = system: SW-620
T47D = system: T47D
TK-10 = system: TK-10
U-251 = system: U-251
UACC-257 = system: UACC-257
UACC-62 = system: UACC-62
UO-31 = system: UO-31
EKVX = system: EKVX
HOP-62 = system: HOP-62
HT-29 = system: HT-29
IGROV-1 = system: IGROV-1
KM12 = system: KM12
M14 = system: M14
MCF7 = system: MCF7
MOLT-4 = system: MOLT-4
Malme-3M = system: Malme-3M
NCI-H226 = system: NCI-H226
NCI-H522 = system: NCI-H522
NCI/ADR-RES = system: NCI/ADR-RES
OVCAR-3 = system: OVCAR-3
OVCAR-5 = system: OVCAR-5
OVCAR-8 = system: OVCAR-8
PC-3 = system: PC-3
SF-539 = system: SF-539
SK-MEL-2 = system: SK-MEL-2
SNB-75 = system: SNB-75

Nc1nc2c(c(=O)[nH]1)C(c1ccc(Cl)cc1)C=C(c1ccccc1)N2 (stereo not given)
GI50 (786-0): 25.4 µM (inactive) | GI50 (A498): 54.5 µM (inactive) | GI50 (A549): 25.9 µM (inactive) | GI50 (ACHN): 75.3 µM (inactive) | GI50 (BT-549): 35.1 µM (inactive) | GI50 (CAKI-1): 91.4 µM (inactive) | GI50 (CCRF-CEM): 24.8 µM (inactive) | GI50 (COLO 205): 19.1 µM (inactive) | GI50 (DU-145): 29.4 µM (inactive) | GI50 (HCC 2998): 15.3 µM (inactive) | GI50 (HCT-116): 16.3 µM (inactive) | GI50 (HCT-15): 34.7 µM | GI50 (HL-60): 30.8 µM (inactive) | GI50 (HOP-92): 20.4 µM (inactive) | GI50 (K562): 20.6 µM (inactive) | GI50 (LOX IMVI): 45.3 µM (inactive) | GI50 (MDA-MB-231): 20.9 µM (inactive) | GI50 (MDA-MB-435): 15 µM (inactive) | GI50 (MDA-N): 18.6 µM (inactive) | GI50 (NCI-H23): 24.4 µM (inactive) | GI50 (NCI-H460): 20.4 µM (inactive) | GI50 (OVCAR-4): 21.6 µM (inactive) | GI50 (RPMI-8226): 18.4 µM (inactive) | GI50 (RXF 393): 43.6 µM (inactive) | GI50 (SF-295): 26.7 µM (inactive) | GI50 (SK-MEL-28): 22.6 µM (inactive) | GI50 (SK-MEL-5): 19.9 µM (inactive) | GI50 (SK-OV-3): 23.8 µM (inactive) | GI50 (SN12C): 19.9 µM (inactive) | GI50 (SNB-19): 37.9 µM (inactive) | GI50 (SR): 19.4 µM (inactive) | GI50 (SW-620): 18.1 µM (inactive) | GI50 (T47D): 21.8 µM (inactive) | GI50 (TK-10): 51.6 µM (inactive) | GI50 (U-251): 17.8 µM (inactive) | GI50 (UACC-257): 54.8 µM (inactive) | GI50 (UACC-62): 27.4 µM (inactive) | GI50 (UO-31): 92.7 µM (inactive)

CCN(C(=O)N[C@@H](CC(C)C)C(=O)NCC(=O)OC)c1ccccc1
GI50 (786-0): > 100 µM (inactive) | GI50 (A549): > 100 µM (inactive) | GI50 (ACHN): > 100 µM (inactive) | GI50 (BT-549): > 100 µM (inactive) | GI50 (CAKI-1): > 100 µM (inactive) | GI50 (CCRF-CEM): > 100 µM (inactive) | GI50 (COLO 205): > 100 µM (inactive) | GI50 (DU-145): > 100 µM (inactive) | GI50 (EKVX): > 100 µM (inactive) | GI50 (HCC 2998): > 100 µM (inactive) | GI50 (HCT-116): > 100 µM (inactive) | GI50 (HCT-15): > 100 µM | GI50 (HOP-62): > 100 µM (inactive) | GI50 (HOP-92): > 100 µM (inactive) | GI50 (HT-29): > 100 µM (inactive) | GI50 (IGROV-1): > 100 µM (inactive) | GI50 (K562): 38.4 µM (inactive) | GI50 (KM12): > 100 µM (inactive) | GI50 (LOX IMVI): 44.3 µM (inactive) | GI50 (M14): > 100 µM (inactive) | GI50 (MCF7): > 100 µM (inactive) | GI50 (MDA-MB-231): > 100 µM (inactive) | GI50 (MDA-MB-435): > 100 µM (inactive) | GI50 (MDA-N): > 100 µM (inactive) | GI50 (MOLT-4): > 100 µM (inactive) | GI50 (Malme-3M): 18 µM (inactive) | GI50 (NCI-H226): > 100 µM (inactive) | GI50 (NCI-H23): > 100 µM (inactive) | GI50 (NCI-H460): 85.7 µM (inactive) | GI50 (NCI-H522): > 100 µM (inactive) | GI50 (NCI/ADR-RES): > 100 µM (inactive) | GI50 (OVCAR-3): > 100 µM (inactive) | GI50 (OVCAR-4): > 100 µM (inactive) | GI50 (OVCAR-5): > 100 µM (inactive) | GI50 (OVCAR-8): > 100 µM (inactive) | GI50 (PC-3): > 100 µM (inactive) | GI50 (RPMI-8226): > 100 µM (inactive) | GI50 (RXF 393): 54 µM (inactive) | GI50 (SF-295): > 100 µM (inactive) | GI50 (SF-539): 41 µM (inactive) | GI50 (SK-MEL-28): 38.3 µM (inactive) | GI50 (SK-MEL-2): 61.4 µM (inactive) | GI50 (SK-MEL-5): 75.5 µM (inactive) | GI50 (SK-OV-3): > 100 µM (inactive) | GI50 (SN12C): > 100 µM (inactive) | GI50 (SNB-19): > 100 µM (inactive) | GI50 (SNB-75): 72.9 µM (inactive) | GI50 (SR): > 100 µM (inactive) | GI50 (SW-620): > 100 µM (inactive) | GI50 (T47D): > 100 µM (inactive) | GI50 (TK-10): > 100 µM (inactive) | GI50 (U-251): > 100 µM (inactive) | GI50 (UACC-257): 25.9 µM (inactive) | GI50 (UACC-62): 30.8 µM (inactive) | GI50 (UO-31): > 100 µM (inactive)

O=S(=O)(O)c1c(Cl)cc(O)c2ncccc12
GI50 (786-0): > 100 µM (inactive) | GI50 (A498): > 100 µM (inactive) | GI50 (A549): > 100 µM (inactive) | GI50 (ACHN): > 100 µM (inactive) | GI50 (BT-549): > 100 µM (inactive) | GI50 (CAKI-1): > 100 µM (inactive) | GI50 (CCRF-CEM): > 100 µM (inactive) | GI50 (COLO 205): > 100 µM (inactive) | GI50 (DU-145): > 100 µM (inactive) | GI50 (EKVX): > 100 µM (inactive) | GI50 (HCC 2998): > 100 µM (inactive) | GI50 (HCT-116): > 100 µM (inactive) | GI50 (HCT-15): > 100 µM | GI50 (HOP-62): > 100 µM (inactive) | GI50 (HOP-92): > 100 µM (inactive) | GI50 (HT-29): > 100 µM (inactive) | GI50 (IGROV-1): > 100 µM (inactive) | GI50 (K562): > 100 µM (inactive) | GI50 (KM12): > 100 µM (inactive) | GI50 (LOX IMVI): > 100 µM (inactive) | GI50 (M14): > 100 µM (inactive) | GI50 (MCF7): > 100 µM (inactive) | GI50 (MDA-MB-231): > 100 µM (inactive) | GI50 (MDA-MB-435): > 100 µM (inactive) | GI50 (MDA-N): > 100 µM (inactive) | GI50 (MOLT-4): > 100 µM (inactive) | GI50 (NCI-H226): > 100 µM (inactive) | GI50 (NCI-H23): > 100 µM (inactive) | GI50 (NCI-H460): > 100 µM (inactive) | GI50 (NCI/ADR-RES): > 100 µM (inactive) | GI50 (OVCAR-3): > 100 µM (inactive) | GI50 (OVCAR-4): > 100 µM (inactive) | GI50 (OVCAR-5): > 100 µM (inactive) | GI50 (OVCAR-8): > 100 µM (inactive) | GI50 (PC-3): > 100 µM (inactive) | GI50 (RPMI-8226): > 100 µM (inactive) | GI50 (RXF 393): > 100 µM (inactive) | GI50 (SF-295): > 100 µM (inactive) | GI50 (SF-539): > 100 µM (inactive) | GI50 (SK-MEL-28): > 100 µM (inactive) | GI50 (SK-MEL-2): > 100 µM (inactive) | GI50 (SK-MEL-5): > 100 µM (inactive) | GI50 (SN12C): > 100 µM (inactive) | GI50 (SNB-19): > 100 µM (inactive) | GI50 (SNB-75): > 100 µM (inactive) | GI50 (SR): > 100 µM (inactive) | GI50 (SW-620): > 100 µM (inactive) | GI50 (T47D): > 100 µM (inactive) | GI50 (U-251): > 100 µM (inactive) | GI50 (UACC-257): > 100 µM (inactive) | GI50 (UACC-62): > 100 µM (inactive) | GI50 (UO-31): > 100 µM (inactive)
